Where a name gives a salt, the structure may show the parent alone.
How the values were obtained:
[1] = tested on: shunt pathway; experiment: Test Code 036 (C-Shunt inhibitor): lysis of human erythrocytes in autologous serum via shunt pathway activated by cobra venom factor; format: biochemical; conditions: activity in wells, twofold serial dilution; higher well number indicates higher activity
Description: (§1) An active inhibitor protects C2 from C1 and C4; (ii) Test Code 035 (C3-C9 inhibitor)--This test determines the ability of the late components of human complement (C3-C9) to lyse EAC 142 in the presence of appropriate dilutions of the test compound. An active inhibitor protects EAC 142 from lysis by human C3-C9; (iii) Test Code 036 (C-Shunt inhibitor)--In this test human erythrocytes rendered fragile are lysed in autologous serum via the shunt pathway activated by cobra venom factor in the presence of appropriate dilutions of the test compound. Inhibition of the shunt pathway results in failure of lysis; (iv) Forssman Vasculitis Test--Here, the well known complement dependent lesion, Forssman vasculitis, is produced in guinea pigs by intradermal injection of rabbit anti-Forssman antiserum. The lesion is measured in terms of diameter, edema and hemorrhage and the extent to which a combined index of these is inhibited by prior intraperitoneal injection of the test compound at 200 mg/kg is then reported, unless otherwise stated; (v) Forssman Shock Test--Lethal shock is produced in guinea pigs by an i.v. injection of anti-Forssman antiserum and the harmonic mean death time of treated guinea pigs is compared with that of the simultaneous controls; (vi) Complement Level Reduction Test--In this test, the above dosed guinea pigs, or others are bled for serum and the complmenet level is determined in undiluted serum by the capillary tube method of U.S. Pat. No. 3,876,376 and compared to undosed control guinea pigs; (vii) Cap 50 Test--Here, appropriate amounts of the test compound are added to a pool of guinea pig serum in vitro, after which the undiluted serum capillary tube assay referred to above is run. The concentration of compound inhibiting 50% is reported.
(§2) **Activity in wells, a serial dilution assay; higher well number indicate
(§3) higher activity. The serial dilutions are twofold-

[2] = target: human C1 (Homo sapiens, UniProt P09871); experiment: Test Code 026 (C1 inhibitor): activated human C1 destroys fluid phase human C2 in presence of C4; format: biochemical; conditions: activity in wells, twofold serial dilution; higher well number indicates higher activity
Description: as §1, §2, §3

[3] = tested on: human complement (C3-C9); experiment: Test Code 035 (C3-C9 inhibitor): lysis of EAC 142 by late components of human complement; format: biochemical; conditions: activity in wells, twofold serial dilution; higher well number indicates higher activity
Description: as §1, §2, §3

[4] = tested on: whole complement; experiment: In vivo activity (Guinea Pig): serum whole complement by capillary tube assay after dosing; conditions: Intraperitoneal, 200 mg/kg

human C1, sequence (P09871 16-688): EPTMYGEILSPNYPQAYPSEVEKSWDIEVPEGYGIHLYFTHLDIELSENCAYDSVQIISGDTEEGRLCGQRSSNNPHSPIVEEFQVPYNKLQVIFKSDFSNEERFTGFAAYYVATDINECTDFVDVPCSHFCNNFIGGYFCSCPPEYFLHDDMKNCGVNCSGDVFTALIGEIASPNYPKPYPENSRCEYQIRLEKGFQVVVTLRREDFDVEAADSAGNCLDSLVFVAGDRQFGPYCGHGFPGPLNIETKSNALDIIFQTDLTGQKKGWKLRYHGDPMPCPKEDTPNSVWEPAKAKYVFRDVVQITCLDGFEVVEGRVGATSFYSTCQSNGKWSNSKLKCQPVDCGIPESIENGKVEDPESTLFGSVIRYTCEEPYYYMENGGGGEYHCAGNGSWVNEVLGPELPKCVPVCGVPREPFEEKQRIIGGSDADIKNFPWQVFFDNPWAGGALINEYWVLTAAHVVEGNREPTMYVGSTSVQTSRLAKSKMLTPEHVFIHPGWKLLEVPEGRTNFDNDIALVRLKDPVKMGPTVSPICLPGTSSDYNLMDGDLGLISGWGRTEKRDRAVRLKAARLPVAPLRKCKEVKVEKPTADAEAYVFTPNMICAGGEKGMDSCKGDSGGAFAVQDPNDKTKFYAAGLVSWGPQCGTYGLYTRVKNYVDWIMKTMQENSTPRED
human C1, sequence (P00736 18-705 partner): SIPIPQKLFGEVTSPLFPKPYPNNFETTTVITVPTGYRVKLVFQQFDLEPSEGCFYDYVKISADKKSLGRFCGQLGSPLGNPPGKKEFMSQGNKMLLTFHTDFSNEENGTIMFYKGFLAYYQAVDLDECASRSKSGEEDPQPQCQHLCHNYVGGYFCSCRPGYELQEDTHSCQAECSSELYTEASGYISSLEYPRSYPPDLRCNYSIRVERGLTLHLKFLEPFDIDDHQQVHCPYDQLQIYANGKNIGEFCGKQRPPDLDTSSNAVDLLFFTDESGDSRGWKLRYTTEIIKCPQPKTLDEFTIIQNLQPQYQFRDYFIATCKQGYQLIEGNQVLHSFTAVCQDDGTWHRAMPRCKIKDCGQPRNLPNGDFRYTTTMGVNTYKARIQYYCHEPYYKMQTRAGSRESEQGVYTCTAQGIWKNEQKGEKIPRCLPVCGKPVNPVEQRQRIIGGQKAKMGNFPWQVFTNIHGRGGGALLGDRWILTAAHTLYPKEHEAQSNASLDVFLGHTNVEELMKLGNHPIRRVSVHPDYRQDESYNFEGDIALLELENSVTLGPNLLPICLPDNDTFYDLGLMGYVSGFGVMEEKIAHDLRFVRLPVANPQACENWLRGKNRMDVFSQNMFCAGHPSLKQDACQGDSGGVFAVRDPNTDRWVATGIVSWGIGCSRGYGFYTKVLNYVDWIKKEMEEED
human C1, sequence (P02745 23-245 partner): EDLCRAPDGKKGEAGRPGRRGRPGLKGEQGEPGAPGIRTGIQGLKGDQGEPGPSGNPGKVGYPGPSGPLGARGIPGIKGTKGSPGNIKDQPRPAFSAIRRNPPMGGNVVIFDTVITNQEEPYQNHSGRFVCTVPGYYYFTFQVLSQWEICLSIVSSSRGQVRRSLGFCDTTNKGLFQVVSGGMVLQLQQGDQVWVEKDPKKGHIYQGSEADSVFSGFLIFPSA
human C1, sequence (P02746 28-253 partner): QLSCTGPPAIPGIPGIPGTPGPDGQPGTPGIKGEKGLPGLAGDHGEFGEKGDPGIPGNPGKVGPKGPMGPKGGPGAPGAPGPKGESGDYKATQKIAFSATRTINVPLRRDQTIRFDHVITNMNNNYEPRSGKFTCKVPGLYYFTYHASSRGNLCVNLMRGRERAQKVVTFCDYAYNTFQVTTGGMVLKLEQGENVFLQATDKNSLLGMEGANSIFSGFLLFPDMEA
human C1, sequence (P02747 29-245 partner): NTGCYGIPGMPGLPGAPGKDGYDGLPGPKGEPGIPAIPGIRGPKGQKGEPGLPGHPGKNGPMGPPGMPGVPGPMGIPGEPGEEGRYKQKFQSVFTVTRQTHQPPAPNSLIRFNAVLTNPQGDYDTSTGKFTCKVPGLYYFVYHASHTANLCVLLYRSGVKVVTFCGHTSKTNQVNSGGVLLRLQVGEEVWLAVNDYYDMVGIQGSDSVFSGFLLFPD

Row | SMILES | Shunt Inhibition 036 Wells [1] | C1 026 Wells [2] | C-Late 035 Wells [3] | In vivo Activity (Guinea Pig) % Inhibition ([4]; 30 min) [%] | In vivo Activity (Guinea Pig) % Inhibition ([4]; 60 min) [%] | In vivo Activity (Guinea Pig) % Inhibition ([4]; 120 min) [%]
1 | O=S(=O)(O)OC[C@H]1O[C@@H](OC[C@H]2O[C@H](OC[C@H]3O[C@H](OS(=O)(=O)O)[C@H](OS(=O)(=O)O)[C@@H](OS(=O)(=O)O)[C@@H]3OS(=O)(=O)O)[C@H](OS(=O)(=O)O)[C@@H](OS(=O)(=O)O)[C@H]2OS(=O)(=O)O)[C@H](OS(=O)(=O)O)[C@@H](OS(=O)(=O)O)[C@@H]1O[C@H]1O[C@H](COS(=O)(=O)O)[C@@H](O[C@H]2O[C@H](COS(=O)(=O)O)[C@@H](OS(=O)(=O)O)[C@H](OS(=O)(=O)O)[C@H]2OS(=O)(=O)O)[C@H](OS(=O)(=O)O)[C@H]1OS(=O)(=O)O [drawing 15, O-α-D-glucopyranosyl(1→4)-O-α-D-glucopyranosyl(1→4)-O-β-D-glucopyranosyl(1→6)-O-α-D-galactopyranosyl(1→6)-α-D-glucopyranose [(glc 1α,4)2 glc 1β,6 gal 1α,6 glc] heptadecakis(H-sulfate), heptadecasodium salt] | +6 Wells | +9 Wells | +2 Wells |  |  | 
2 | O=S(=O)(O)OC[C@H]1O[C@@H](OC[C@H]2O[C@H](OC[C@H]3OC(OS(=O)(=O)O)[C@H](OS(=O)(=O)O)[C@@H](OS(=O)(=O)O)[C@@H]3OS(=O)(=O)O)[C@H](OS(=O)(=O)O)[C@@H](OS(=O)(=O)O)[C@H]2OS(=O)(=O)O)[C@H](OS(=O)(=O)O)[C@@H](OS(=O)(=O)O)[C@@H]1O[C@H]1O[C@H](COS(=O)(=O)O)[C@@H](O[C@H]2O[C@H](COS(=O)(=O)O)[C@@H](O[C@H]3O[C@H](COS(=O)(=O)O)[C@@H](O[C@H]4O[C@H](COS(=O)(=O)O)[C@@H](O[C@H]5O[C@H](COS(=O)(=O)O)[C@@H](O[C@H]6O[C@H](COS(=O)(=O)O)[C@@H](OS(=O)(=O)O)[C@H](OS(=O)(=O)O)[C@H]6OS(=O)(=O)O)[C@H](OS(=O)(=O)O)[C@H]5OS(=O)(=O)O)[C@H](OS(=O)(=O)O)[C@H]4OS(=O)(=O)O)[C@H](OS(=O)(=O)O)[C@H]3OS(=O)(=O)O)[C@H](OS(=O)(=O)O)[C@H]2OS(=O)(=O)O)[C@H](OS(=O)(=O)O)[C@H]1OS(=O)(=O)O (stereo partly drawn) [drawing 16, O-α-D-glucopyranosyl(1→4)-O-α-D-glucopyranosyl(1→4)-O-α-D-glucopyranosyl(1→4)-O-α-D-glucopyranosyl(1→4)-O-α-D-glucopyranosyl(1→4)-O-α-D-glucopyranosyl(1→4)-O-β-D-glucopyranosyl(1→6)-O-α-D-galactopyranosyl(1→6)-D-glucopyranose [(glc 1α,4)6 glc 1β,6 gal 1α,6 glc] nonacosakis (H-sulfate), non-acosasalt with trimethylamine] | +5 Wells | +10 Wells | +1 Wells |  |  | 
3 | O=S(=O)(O)OC[C@H]1O[C@@H](OC[C@H]2O[C@H](OC[C@H]3O[C@H](OS(=O)(=O)O)[C@H](OS(=O)(=O)O)[C@@H](OS(=O)(=O)O)[C@@H]3OS(=O)(=O)O)[C@H](OS(=O)(=O)O)[C@@H](OS(=O)(=O)O)[C@H]2OS(=O)(=O)O)[C@H](OS(=O)(=O)O)[C@@H](OS(=O)(=O)O)[C@H]1OS(=O)(=O)O [drawing 7, O-β-D-galactopyranosyl(1→6)-O-α-D-galactopyranosyl(1→6)-α-D-glucopyranose [gal 1β,6 gal 1α,6 glc] undecakis (H-sulfate), undecasodium salt] |  | +9 Wells |  | -30 | -17 | -56
4 | O=S(=O)(O)OC[C@H]1O[C@H](OC[C@H]2O[C@@H](OC[C@H]3O[C@H](OC[C@H]4O[C@H](OS(=O)(=O)O)[C@H](OS(=O)(=O)O)[C@@H](OS(=O)(=O)O)[C@@H]4OS(=O)(=O)O)[C@H](OS(=O)(=O)O)[C@@H](OS(=O)(=O)O)[C@H]3OS(=O)(=O)O)[C@H](OS(=O)(=O)O)[C@@H](OS(=O)(=O)O)[C@@H]2OS(=O)(=O)O)[C@H](OS(=O)(=O)O)[C@@H](OS(=O)(=O)O)[C@H]1OS(=O)(=O)O [drawing 8, O-α-D-galactopyranosyl(1→6)-O-β-D-glucopyranosyl(1→6)-O-α-D-galactopyranosyl(1→6)-α-D-glucopyranose [gal 1α,6 glc 1β,6 gal 1α,6 glc] tetradecakis (H-sulfate), tetradecasalt with trimethylamine] | +5 Wells | +9 Wells | +1 Wells |  |  | 
5 | O=S(=O)(O)OC[C@H]1O[C@@H](OC[C@H]2O[C@H](OC[C@H]3O[C@H](OS(=O)(=O)O)[C@H](OS(=O)(=O)O)[C@@H](OS(=O)(=O)O)[C@@H]3OS(=O)(=O)O)[C@H](OS(=O)(=O)O)[C@@H](OS(=O)(=O)O)[C@H]2OS(=O)(=O)O)[C@H](OS(=O)(=O)O)[C@@H](OS(=O)(=O)O)[C@@H]1O[C@@H]1O[C@H](COS(=O)(=O)O)[C@@H](OS(=O)(=O)O)[C@H](OS(=O)(=O)O)[C@H]1OS(=O)(=O)O [drawing 12, O-β-D-glucopyranosyl(1→4)-O-β-D-glucopyranosyl(1→6)-O-α-D-galactopyrranosyl(1→6)-α-D-glucopyranose [glc 1β,4 glc 1β,6 gal 1α,6 glc] tetradecakis (H-sulfate), tetradecasalt with trimethylamine] | +4 Wells | +9 Wells |  |  |  | 
6 | O=S(=O)(O)OC[C@H]1O[C@@H](OC[C@H]2O[C@H](OC[C@H]3OC(OS(=O)(=O)O)[C@H](OS(=O)(=O)O)[C@@H](OS(=O)(=O)O)[C@@H]3OS(=O)(=O)O)[C@H](OS(=O)(=O)O)[C@@H](OS(=O)(=O)O)[C@H]2OS(=O)(=O)O)[C@H](OS(=O)(=O)O)[C@@H](OS(=O)(=O)O)[C@@H]1O[C@H]1O[C@H](COS(=O)(=O)O)[C@@H](OS(=O)(=O)O)[C@H](OS(=O)(=O)O)[C@H]1OS(=O)(=O)O (stereo partly drawn) [drawing 10, O-α-D-glucopyranosyl(1→4)-O-β-D-glucopyranosyl(1→6)-O-α-D-galactopyranosyl(1→6)-D-glucopyranose [glc 1α,4 glc 1β,6 gal 1α,6 glc] tetradecakis (H-sulfate), tetradecasalt with trimethylamine] | +5 Wells | +9 Wells | +1 Wells |  |  | 
7 | O=S(=O)(O)OC[C@H]1O[C@@H](OC[C@H]2O[C@H](OC[C@H]3O[C@H](OS(=O)(=O)O)[C@H](OS(=O)(=O)O)[C@@H](OS(=O)(=O)O)[C@@H]3OS(=O)(=O)O)[C@H](OS(=O)(=O)O)[C@@H](OS(=O)(=O)O)[C@H]2OS(=O)(=O)O)[C@H](OS(=O)(=O)O)[C@@H](OS(=O)(=O)O)[C@H]1OS(=O)(=O)O [drawing 6, O-β-D-galactopyranosyl(1→6)-O-α-D-galactopyranosyl(1→6)-α-D-glucopyranose [gal 1β,6 gal 1α,6 glc] undecakis (H-sulfate), undecasalt with trimethylamine] |  | +9 Wells |  |  |  | 
8 | O=S(=O)(O)OC[C@H]1O[C@@H](OC[C@H]2O[C@H](OC[C@H]3O[C@H](OS(=O)(=O)O)[C@H](OS(=O)(=O)O)[C@@H](OS(=O)(=O)O)[C@@H]3OS(=O)(=O)O)[C@H](OS(=O)(=O)O)[C@@H](OS(=O)(=O)O)[C@H]2OS(=O)(=O)O)[C@H](OS(=O)(=O)O)[C@@H](OS(=O)(=O)O)[C@@H]1O[C@H]1O[C@H](COS(=O)(=O)O)[C@@H](O[C@H]2O[C@H](COS(=O)(=O)O)[C@@H](OS(=O)(=O)O)[C@H](OS(=O)(=O)O)[C@H]2OS(=O)(=O)O)[C@H](OS(=O)(=O)O)[C@H]1OS(=O)(=O)O [drawing 14, O-α-D-glucopyranosyl(1→4)-O-α-D-glucopyranosyl(1→4)-O-β-D-glucopyranosyl(1→6)-O-α-D-galactopyranosyl(1→6)-α-D-glucopyranose [(glc 1α,4)2 glc 1β,6 gal 1α,6 glc] heptadecakis(H-sulfate), heptadecasalt with trimethylamine] |  | +9 Wells | +1 Wells |  |  | 
9 | O=S(=O)(O)OC[C@H]1O[C@H](OC[C@H]2O[C@H](OS(=O)(=O)O)[C@H](OS(=O)(=O)O)[C@@H](OS(=O)(=O)O)[C@@H]2OS(=O)(=O)O)[C@H](OS(=O)(=O)O)[C@@H](OS(=O)(=O)O)[C@H]1OS(=O)(=O)O |  | +8 Wells |  |  |  | 
10 | O=S(=O)(O)OC[C@H]1O[C@@H](OC[C@H]2O[C@H](OC[C@H]3O[C@H](OS(=O)(=O)O)[C@H](OS(=O)(=O)O)[C@@H](OS(=O)(=O)O)[C@@H]3OS(=O)(=O)O)[C@H](OS(=O)(=O)O)[C@@H](OS(=O)(=O)O)[C@H]2OS(=O)(=O)O)[C@H](OS(=O)(=O)O)[C@@H](OS(=O)(=O)O)[C@@H]1O[C@@H]1O[C@H](COS(=O)(=O)O)[C@@H](OS(=O)(=O)O)[C@H](OS(=O)(=O)O)[C@H]1OS(=O)(=O)O [drawing 13, O-β-D-glucopyranosyl(1→4)-O-β-D-glucopyranosyl(1→6)-O-α-D-galactopyranosyl(1→6)-α-D-glucopyranose [glc 1β,4 glc 1β,6 gal 1α,6 glc] tetradecakis (H-sulfate), tetradecasodium salt] |  | +9 Wells |  | -25 | -34 | -60
